Measurements from ChEMBL document CHEMBL4680063, “G-Protein biased opioid agonists: 3-hydroxy-N-phenethyl-5-phenylmorphans with three-carbon chain substituents at C9” (RSC Med Chem, 2020).
pEC50: −log10 of the molar value.

Experiments:
Mu-type opioid receptor [1] = target: T1, Mu-type opioid receptor (Homo sapiens, UniProt P35372); assay: Agonist activity at human MOR expressed in CHOK1 cells assessed as inhibition of forskolin-stimulated cAMP accumulation incubated for 30 mins by luminescence assay; type: functional, cell-based, CHO-K1
T1 sequence (P35372 whole entry): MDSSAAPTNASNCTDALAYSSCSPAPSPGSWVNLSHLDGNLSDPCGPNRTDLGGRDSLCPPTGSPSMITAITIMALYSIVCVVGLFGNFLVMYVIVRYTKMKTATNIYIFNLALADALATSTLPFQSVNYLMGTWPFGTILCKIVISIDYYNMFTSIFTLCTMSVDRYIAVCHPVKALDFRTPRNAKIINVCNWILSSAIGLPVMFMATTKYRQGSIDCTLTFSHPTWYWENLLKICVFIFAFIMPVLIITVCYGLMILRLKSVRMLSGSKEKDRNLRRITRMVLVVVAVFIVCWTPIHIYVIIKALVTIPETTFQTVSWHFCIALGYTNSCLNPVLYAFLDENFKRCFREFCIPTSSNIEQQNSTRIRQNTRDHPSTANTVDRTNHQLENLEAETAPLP

[2] = target: Kappa-type opioid receptor (Homo sapiens, UniProt P41145); assay: Agonist activity at human KOR expressed in CHOK1 cells assessed as inhibition of forskolin-stimulated cAMP accumulation incubated for 30 mins by luminescence assay; type: functional, cell-based, CHO-K1
Sequence of Kappa-type opioid receptor (P41145 whole entry): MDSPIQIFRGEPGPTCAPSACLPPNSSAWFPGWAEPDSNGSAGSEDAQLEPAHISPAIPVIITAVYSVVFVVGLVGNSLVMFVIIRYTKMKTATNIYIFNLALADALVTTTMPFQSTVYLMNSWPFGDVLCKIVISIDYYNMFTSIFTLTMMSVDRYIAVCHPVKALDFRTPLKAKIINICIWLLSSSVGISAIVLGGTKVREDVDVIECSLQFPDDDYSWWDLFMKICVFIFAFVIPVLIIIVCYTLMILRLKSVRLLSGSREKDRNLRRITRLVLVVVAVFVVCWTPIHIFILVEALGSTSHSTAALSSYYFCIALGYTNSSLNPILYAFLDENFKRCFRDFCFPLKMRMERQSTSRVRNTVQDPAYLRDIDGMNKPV

Mu-type opioid receptor [3] = target: T1, Mu-type opioid receptor; assay: Activity at human MOR expressed in U2OS cells co-expressing beta-arrestin2 EFC assessed as beta-arrestin2 EFC recruitment by Tango assay; type: ADME, cell-based
[4] = target: Delta-type opioid receptor (Homo sapiens, UniProt P41143); assay: Agonist activity at human DOR expressed in CHOK1 cells assessed as inhibition of forskolin-stimulated cAMP accumulation incubated for 30 mins by luminescence assay; type: functional, cell-based, CHO-K1
Sequence of Delta-type opioid receptor (P41143 whole entry): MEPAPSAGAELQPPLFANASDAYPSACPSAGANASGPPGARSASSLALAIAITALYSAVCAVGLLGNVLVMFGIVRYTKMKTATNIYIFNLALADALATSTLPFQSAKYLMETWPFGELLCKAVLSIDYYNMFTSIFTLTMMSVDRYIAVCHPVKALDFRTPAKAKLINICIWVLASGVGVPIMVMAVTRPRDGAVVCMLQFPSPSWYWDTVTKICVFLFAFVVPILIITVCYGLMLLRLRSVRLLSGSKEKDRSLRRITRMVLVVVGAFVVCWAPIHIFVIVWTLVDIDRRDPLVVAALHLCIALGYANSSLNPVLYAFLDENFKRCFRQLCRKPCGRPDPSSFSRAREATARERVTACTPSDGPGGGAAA

Mu-type opioid receptor [5] = target: T1, Mu-type opioid receptor; assay: Activity at human MOR expressed in CHOK1 cells co-expressing beta-arrestin2 EFC assessed as beta-arrestin2 EFC recruitment measured after 90 mins by PathHunter assay; type: ADME, cell-based, CHO-K1
Mu-type opioid receptor [6] = target: T1, Mu-type opioid receptor; assay: Agonist activity at human MOR expressed in CHOK1 cells assessed as induction of beta-arrestin recruitment measured after 90 mins by PathHunter assay relative to control; type: cell-based; conditions: CHO-K1

SMILES | pEC50 (Mu-type opioid receptor [1]) | pEC50 [2] | pEC50 (Mu-type opioid receptor [3]) | pEC50 [4] | pEC50 (Mu-type opioid receptor [5]) | Emax (Mu-type opioid receptor [6])
COC(=O)CC[C@@H]1[C@H]2CCC[C@]1(c1cccc(O)c1)CCN2CCc1ccccc1 | 7.50 | < 5.00 | < 4.60 | < 5.00 | < 4.60 | –
CCOC(=O)CC[C@H]1[C@@H]2CCC[C@@]1(c1cccc(O)c1)CCN2CCc1ccccc1 | 9.62 | 7.45 | < 4.60 | 7.31 | 7.94 | –
OCCC[C@@H]1[C@H]2CCC[C@]1(c1cccc(O)c1)CCN2CCc1ccccc1 | – | < 5.00 | < 4.60 | < 5.00 | < 4.60 | –
CCC[C@H]1[C@@H]2CCC[C@@]1(c1cccc(O)c1)CCN2CCc1ccccc1 | – | < 5.00 | < 4.60 | < 5.00 | < 4.60 | –
COC(=O)CC[C@@H]1[C@@H]2CCC[C@@]1(c1cccc(O)c1)CCN2CCc1ccccc1 | 6.07 | 6.49 | – | < 5.00 | < 4.60 | –
COC(=O)/C=C/[C@H]1[C@@H]2CCC[C@@]1(c1cccc(O)c1)CCN2CCc1ccccc1 | 6.88 | < 5.00 | – | 6.84 | < 4.60 | –
Oc1cccc([C@@]23CCC[C@H]([C@H]2O)N(CCc2ccccc2)CC3)c1 | 10.77 | 6.49 | – | 8.59 | 8.22 | –
C[C@@H](Cc1ccsc1)NC(=O)NC[C@H](Cc1ccc(O)cc1)N(C)C | – | – | – | – | – | 4.3%
O=C(O)CC[C@H]1[C@@H]2CCC[C@@]1(c1cccc(O)c1)CCN2CCc1ccccc1 | 7.50 | < 5.00 | < 4.60 | < 5.00 | < 4.60 | –
OCCC[C@H]1[C@@H]2CCC[C@@]1(c1cccc(O)c1)CCN2CCc1ccccc1 | – | < 5.00 | < 4.60 | 7.09 | < 4.60 | –
COC(=O)CC[C@H]1[C@@H]2CCC[C@@]1(c1cccc(O)c1)CCN2CCc1ccccc1 | 9.34 | – | 7.90 | < 5.00 | 8.76 | –
OC/C=C/[C@H]1[C@@H]2CCC[C@@]1(c1cccc(O)c1)CCN2CCc1ccccc1 | – | < 5.00 | < 4.60 | < 5.00 | < 4.60 | –
